Holding throughout (assay type): in vitro ADME
The target of one data set is human SULT 1A1 (Homo sapiens, UniProt P50225). In words: Sulfating activity of purified human SULT1A1. The settings on record: substrate 10 μM, mean ± SD, three experiments.
The next data set has as its target human SULT 1A2 (Homo sapiens, UniProt P50226). Put plainly: Sulfating activity of purified human SULT1A2. The note with it: substrate 10 μM, mean ± SD, three experiments.
In a further data set the target is human SULT 1A3 (Homo sapiens, UniProt P0DMM9). Put plainly: Sulfating activity of purified human SULT1A3.
human SULT 1A3, sequence (P0DMM9 whole entry): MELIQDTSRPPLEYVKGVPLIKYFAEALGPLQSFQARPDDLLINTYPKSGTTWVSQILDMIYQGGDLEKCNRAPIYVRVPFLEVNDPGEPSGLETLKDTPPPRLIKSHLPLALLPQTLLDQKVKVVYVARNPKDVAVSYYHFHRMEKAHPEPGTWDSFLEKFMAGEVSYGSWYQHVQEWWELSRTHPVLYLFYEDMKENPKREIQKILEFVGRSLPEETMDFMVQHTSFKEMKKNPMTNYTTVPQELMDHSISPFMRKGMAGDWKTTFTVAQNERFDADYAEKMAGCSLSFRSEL
Another data set has as its target human SULT 1C4 (Homo sapiens, UniProt O75897). In words: Sulfating activity of purified human SULT1C4. The note with it: substrate 10 μM, mean ± SD, three experiments.
The nature of data set [1]: Sulfating activity of human liver cytosol. The settings on record: mean ± SD, three experiments.
Data set [2] in a line: Sulfating activity of human small intestine cytosol. The note with it: mean ± SD, three experiments.
Where [3] appears, read: SULT 1A3, substrate 10 μM, mean ± SD, three experiments.

human SULT 1A2, sequence (P50226 whole entry): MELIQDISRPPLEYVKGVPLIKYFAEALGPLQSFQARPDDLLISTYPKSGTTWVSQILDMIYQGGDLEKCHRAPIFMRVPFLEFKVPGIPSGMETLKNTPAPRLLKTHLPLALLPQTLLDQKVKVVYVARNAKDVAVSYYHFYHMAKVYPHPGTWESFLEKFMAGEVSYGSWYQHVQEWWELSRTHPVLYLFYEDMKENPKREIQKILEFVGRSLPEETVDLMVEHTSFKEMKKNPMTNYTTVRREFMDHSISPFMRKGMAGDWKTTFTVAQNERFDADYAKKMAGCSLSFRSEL
human SULT 1C4, sequence (O75897 whole entry): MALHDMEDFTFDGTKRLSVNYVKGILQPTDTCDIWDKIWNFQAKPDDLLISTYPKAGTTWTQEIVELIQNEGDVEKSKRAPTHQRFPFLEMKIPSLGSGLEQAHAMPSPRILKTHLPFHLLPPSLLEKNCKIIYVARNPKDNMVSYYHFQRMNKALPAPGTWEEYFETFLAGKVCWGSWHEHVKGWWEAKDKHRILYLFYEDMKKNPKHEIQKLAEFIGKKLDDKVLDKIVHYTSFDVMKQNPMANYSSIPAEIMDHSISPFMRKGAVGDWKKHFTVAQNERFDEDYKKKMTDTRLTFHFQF
human SULT 1A1, sequence (P50225 whole entry): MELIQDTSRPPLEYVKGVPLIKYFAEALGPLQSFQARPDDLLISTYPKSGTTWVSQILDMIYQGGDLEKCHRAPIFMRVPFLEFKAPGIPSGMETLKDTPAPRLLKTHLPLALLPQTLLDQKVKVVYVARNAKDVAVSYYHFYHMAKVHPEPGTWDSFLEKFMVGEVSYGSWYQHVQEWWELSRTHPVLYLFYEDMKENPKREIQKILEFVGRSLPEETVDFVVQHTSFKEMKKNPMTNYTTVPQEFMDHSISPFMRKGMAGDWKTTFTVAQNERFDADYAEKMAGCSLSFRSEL

Consider `O=c1cc(-c2ccc(O)cc2)oc2cc(O)cc(O)c12` [Apigenin], for which the “Specific Activity (nmol substrate sulfated/min/mg purified enzyme)” value on human SULT 1A1 amounted to 10.67 ± 0.99 nmol/min/mg; on human SULT 1A2 it was 7.90 ± 0.32 nmol/min/mg; on human SULT 1A3 (setting [3]), 6.38 ± 0.40 nmol/min/mg; on human SULT 1C4, 3.58 ± 0.09 nmol/min/mg. Moreover, the “Specific Activity (pmol substrate sulfated/min/mg protein)” value was found to be 20.87 ± 5.39 pmol/min/mg in data set [1] (substrate 10 μM), 25.04 ± 2.20 pmol/min/mg in data set [1] (substrate 50 μM), 88.59 ± 1.07 pmol/min/mg in data set [2] (substrate 10 μM) and 113.24 ± 0.32 pmol/min/mg in data set [2] (substrate 50 μM).

Consider `COc1ccc([C@@H]2CC(=O)c3c(O)cc(O)cc3O2)cc1O` [Hesperetin], for which the “Specific Activity (nmol substrate sulfated/min/mg purified enzyme)” value amounted to 44.17 ± 1.16 nmol/min/mg on human SULT 1A1, 28.16 ± 0.38 nmol/min/mg on human SULT 1A2, 29.80 ± 0.74 nmol/min/mg on human SULT 1A3 (setting [3]) and 13.34 ± 0.49 nmol/min/mg on human SULT 1C4. Also, the “Specific Activity (pmol substrate sulfated/min/mg protein)” value was determined as 139.79 ± 6.87 pmol/min/mg in data set [1] (substrate 10 μM), 181.73 ± 13.25 pmol/min/mg in data set [1] (substrate 50 μM), 458.26 ± 11.82 pmol/min/mg in data set [2] (substrate 10 μM) and 643.61 ± 45.12 pmol/min/mg in data set [2] (substrate 50 μM).

Regarding `O=C1C[C@@H](c2ccc(O)cc2)Oc2cc(O)cc(O)c21` [Naringenin], the “Specific Activity (nmol substrate sulfated/min/mg purified enzyme)” value is given as 24.85 ± 0.65 nmol/min/mg at human SULT 1A1; 17.51 ± 0.31 nmol/min/mg on human SULT 1A2; 14.90 ± 0.15 nmol/min/mg on human SULT 1A3 (human, 10 μM); 11.99 ± 0.17 nmol/min/mg on human SULT 1C4. Also, the “Specific Activity (pmol substrate sulfated/min/mg protein)” value is given as 135.32 ± 15.67 pmol/min/mg in data set [1] (substrate 10 μM), 156.97 ± 17.94 pmol/min/mg in data set [1] (substrate 50 μM), 252.86 ± 13.22 pmol/min/mg in data set [2] (substrate 10 μM) and 354.21 ± 13.98 pmol/min/mg in data set [2] (substrate 50 μM).

For the origin of these results see PMC6502695 (Natural product research, 2018).
